In ChEMBL document CHEMBL4028819, “Synthesis, antiplatelet and antithrombotic activities of resveratrol derivatives with NO-donor properties” (Bioorg Med Chem Lett, 2017):
The source made the active and inactive calls. The calls are words filed in the database; no cut-off is given here.

Assays:
Platelet [1] = test: Antiplatelet activity in Wistar rat platelet rich plasma assessed as inhibition of collagen-induced platelet aggregation at 150 uM preincubated for 1 min followed by collagen addition by aggregometric analysis relative to control; type: functional
Platelet [2] = test: Antiplatelet activity in Wistar rat platelet rich plasma assessed as inhibition of arachidonic acid-induced platelet aggregation at 150 uM preincubated for 1 min followed by arachidonic acid addition by aggregometric analysis relative to control; type: functional
Platelet [3] = test: Antiplatelet activity in Wistar rat platelet rich plasma assessed as inhibition of ADP-induced platelet aggregation at 150 uM preincubated for 1 min followed by ADP addition by aggregometric analysis relative to control; type: functional
[4] = Induction of NO release assessed as nitrite formation in aqueous buffer at pH 7.4 measured after 1 hr in presence of L-cysteine by Griess assay; design: concentration or dose not given beside the values
Mus musculus [5] = test: Toxicity in Swiss albino mouse assessed as bleeding time at 100 umol/10 g administered orally 60 mins prior to test by tail transection method; details: in vivo, po, 1 h
Mus musculus [6] = test: Anti-thrombotic activity in Swiss albino mouse assessed as protection against collagen/epinephrine-induced pulmonary thromboembolism at 100 umol/10 g, po administered as single dose pretreated for 60 mins followed by thrombotic challenge relative to control; type: functional

O=C(N/N=C/c1ccc(Oc2no[n+]([O-])c2S(=O)(=O)c2ccccc2)cc1)c1ccccc1O
inhibition at 150 µM (Platelet [1]): 34.4% | inhibition at 150 µM (Platelet [2]): 8.5% | inhibition at 150 µM (Platelet [3]): 74.3% | Activity [4]: 24.5%

O=C(N/N=C/c1cccc(Oc2no[n+]([O-])c2S(=O)(=O)c2ccccc2)c1)c1cccc(O)c1
inhibition at 150 µM (Platelet [1]): 44.8% | inhibition at 150 µM (Platelet [2]): 25% | inhibition at 150 µM (Platelet [3]): 88.4% | Activity [4]: 24.1%

O=C(N/N=C/c1ccc(O)cc1)c1cccc(O)c1
inhibition at 150 µM (Platelet [1]): 19.1% | inhibition at 150 µM (Platelet [2]): 72.8% | inhibition at 150 µM (Platelet [3]): 60.3%

O=C(N/N=C/c1cccc(O)c1)c1cccc(O)c1
inhibition at 150 µM (Platelet [1]): 29.1% | inhibition at 150 µM (Platelet [2]): 48.2% | inhibition at 150 µM (Platelet [3]): 46.1%

O=C(N/N=C/c1ccc(O)cc1)c1ccccc1O
inhibition at 150 µM (Platelet [1]): 35.9% | inhibition at 150 µM (Platelet [2]): 42.5% | inhibition at 150 µM (Platelet [3]): 58.2%

O=C(N/N=C/c1cccc(Oc2no[n+]([O-])c2S(=O)(=O)c2ccccc2)c1)c1ccc(O)cc1
inhibition at 150 µM (Platelet [1]): 39.9% | inhibition at 150 µM (Platelet [2]): 14.3% | inhibition at 150 µM (Platelet [3]): 91.9% | Activity [4]: 27.4%

O=C(N/N=C/c1ccc(Oc2no[n+]([O-])c2S(=O)(=O)c2ccccc2)cc1)c1cccc(O)c1
inhibition at 150 µM (Platelet [1]): 54.3% | inhibition at 150 µM (Platelet [2]): 37.3% | inhibition at 150 µM (Platelet [3]): 82.2% | Activity [4]: 26.2%

O=C(N/N=C/c1cccc(O)c1)c1ccccc1O
inhibition at 150 µM (Platelet [1]): 27.5% | inhibition at 150 µM (Platelet [2]): 60.8% | inhibition at 150 µM (Platelet [3]): 56%

O=C(N/N=C/c1ccc(Oc2no[n+]([O-])c2S(=O)(=O)c2ccccc2)cc1)c1ccc(O)cc1
inhibition at 150 µM (Platelet [1]): 72.2% | inhibition at 150 µM (Platelet [2]): 20.3% | inhibition at 150 µM (Platelet [3]): 87.1% | Activity [4]: 25.8% | Time (Mus musculus [5]): 380 s | Activity (Mus musculus [6]): 80%

O=C(N/N=C/c1cccc(Oc2no[n+]([O-])c2S(=O)(=O)c2ccccc2)c1)c1ccccc1O
inhibition at 150 µM (Platelet [1]): 25.5% | inhibition at 150 µM (Platelet [2]): 17% | inhibition at 150 µM (Platelet [3]): 84.2% | Activity [4]: 25.3%

O=S(=O)(c1ccccc1)c1no[n+]([O-])c1S(=O)(=O)c1ccccc1
inhibition at 150 µM (Platelet [1]): 29.7% | inhibition at 150 µM (Platelet [2]): 6.7% | inhibition at 150 µM (Platelet [3]): 89.8% | Activity [4]: 32.1% | Activity (Mus musculus [6]): inactive

CC(=O)Oc1ccccc1C(=O)O [ASPIRIN]
inhibition at 150 µM (Platelet [1]): 63.4% | inhibition at 150 µM (Platelet [2]): 28.9% | inhibition at 150 µM (Platelet [3]): 27.7% | Time (Mus musculus [5]): 800 s | Activity (Mus musculus [6]): 40%

O=C(N/N=C/c1ccc(O)cc1)c1ccc(O)cc1
inhibition at 150 µM (Platelet [1]): 44% | inhibition at 150 µM (Platelet [2]): 79.6% | inhibition at 150 µM (Platelet [3]): 31.3% | Time (Mus musculus [5]): 200 s | Activity (Mus musculus [6]): 40%

O=C(N/N=C/c1cccc(O)c1)c1ccc(O)cc1
inhibition at 150 µM (Platelet [1]): 33.1% | inhibition at 150 µM (Platelet [2]): 74.1% | inhibition at 150 µM (Platelet [3]): 42.4%
